{"source": "patent US6673902B2", "about": "“Cyclin D binding factor, and uses thereof” (St. Jude Children's Research Hospital, priority 1996, dated 2004)", "key": {"[1]": {"tested_on": "promoters lacking BS2 sites or containing Ets-specific M3 sites", "experiment": "Transactivation of reporters lacking BS2 sites or containing M3 sites in 293T cells", "format": "cell-based, human", "text": "An XbaI-EcoRV fragment containing the entire DMP1 coding sequence is subcloned by blunt end ligation into a SpeI-XbaI fragment of the Rc/RSV vector (Invitrogen, La Jolla Calif.) to enable DMP1 expression in mammalian cells. 6×concatamerized BS1, 8×concatamerized, BS2, or 7×concatamerized M3 oligonucleotides (FIG. 5B) are inserted into the XhoI-SmaI sites of pGL2 (Pfornega) 5′ to a minimal simian virus 40 (SV40) early promoter driving firefly luciferase gene expression. The latter “reporter” plasmid (1 μg) together with increasing amounts of pRc/RSV-DMP1 expression plasmid compensated by decreasing quantities of control pRc/RSV DNA (total of both=2.5 μg) were transfected into 293T cells (1.5×10^6 cells per 60 mm diameter culture dish) by calcium phosphate precipitation (7). Two days later, cells were harvested, washed three times with PBS, and lysed in 1 ml of 25 mM glycylglycine (Sigma), pH 7.8, 15 mM MgSO4, 4 mM EDTA, 1 mM DTT, and 1% Triton X-100. After clearing by centrifugation, 50 μl aliquots were assayed diluted to 350 μl using 15 mM potassium phosphate buffer, pH 7.8, containing 15 mM MgSO4, 4 mM EGTA, 2 mM ATP, 1 mM DTT, and 67 uM luciferin (Sigma). Total light emission was measured for duplicate samples during the initial 20 seconds after luciferin injection with an Optocomp I luminometer (MGM Instruments, Hamden Conn.). […]"}, "wild-type MEFs": {"tested_on": "wild-type MEFs", "experiment": "Apoptosis assay in wild-type MEFs deprived of serum", "format": "cell-based, mouse", "method": "Apoptosis assays. Wild-type MEFs infected with the indicated retroviruses for 36 hours were starved for serum for 24 hours. Viability was determined by trypan blue dye exclusion, and DNA fragmentation was monitored by a terminal deoxynuclectidyl transferase (FACS-TUNEL) assay and by measurement of subdiploid DNA content of propidium iodide-stained nuclei [Zindy et al., Genes Dev. 12:2424-2433 (1998)].\nOn the other hand, MEFs overexpressing c-Myc, E2F-1, or E1A are exquisitely sensitive to apoptosis. […] 12:2424-2433 (1998); De Stanchina et al., Genes Dev. 12:2434-2442 (1998)]."}}}
{"substance": "DMP1: murine cyclin D-associated myb-like transcription factor, 761 amino acids, SEQ ID NO:1", "values": [{"measurement": "transactivation", "setting": "[1]", "result": "not observed"}, {"measurement": "apoptosis / cell death", "setting": "wild-type MEFs", "result": "did not trigger apoptosis"}]}
